Data from US20260042753A1 (Merck Patent GmbH, priority 2019, published 2026).
Counter-ions that a name gives are not always drawn. Like-named read-outs stand apart in the source and are kept apart here.

Assays:
[1] = molecular target: mutant cKIT (560-576 and V654A) in GIST430/654 cell line (Homo sapiens (Human), UniProt P10721, DEL560-576/V654A); test: Cellular testing of cKIT mutant inhibitors: phospho-Y307-cKIT Luminex assay in GIST430/654 cells; assay type: cell-based; details: read-out: GIST 430/654 IC50
Chain of mutant cKIT (560-576 and V654A) in GIST430/654 cell line (P10721 other isoform, or with tags, fused parts or gaps V654A/del 1-25/del 560-576 limits assumed): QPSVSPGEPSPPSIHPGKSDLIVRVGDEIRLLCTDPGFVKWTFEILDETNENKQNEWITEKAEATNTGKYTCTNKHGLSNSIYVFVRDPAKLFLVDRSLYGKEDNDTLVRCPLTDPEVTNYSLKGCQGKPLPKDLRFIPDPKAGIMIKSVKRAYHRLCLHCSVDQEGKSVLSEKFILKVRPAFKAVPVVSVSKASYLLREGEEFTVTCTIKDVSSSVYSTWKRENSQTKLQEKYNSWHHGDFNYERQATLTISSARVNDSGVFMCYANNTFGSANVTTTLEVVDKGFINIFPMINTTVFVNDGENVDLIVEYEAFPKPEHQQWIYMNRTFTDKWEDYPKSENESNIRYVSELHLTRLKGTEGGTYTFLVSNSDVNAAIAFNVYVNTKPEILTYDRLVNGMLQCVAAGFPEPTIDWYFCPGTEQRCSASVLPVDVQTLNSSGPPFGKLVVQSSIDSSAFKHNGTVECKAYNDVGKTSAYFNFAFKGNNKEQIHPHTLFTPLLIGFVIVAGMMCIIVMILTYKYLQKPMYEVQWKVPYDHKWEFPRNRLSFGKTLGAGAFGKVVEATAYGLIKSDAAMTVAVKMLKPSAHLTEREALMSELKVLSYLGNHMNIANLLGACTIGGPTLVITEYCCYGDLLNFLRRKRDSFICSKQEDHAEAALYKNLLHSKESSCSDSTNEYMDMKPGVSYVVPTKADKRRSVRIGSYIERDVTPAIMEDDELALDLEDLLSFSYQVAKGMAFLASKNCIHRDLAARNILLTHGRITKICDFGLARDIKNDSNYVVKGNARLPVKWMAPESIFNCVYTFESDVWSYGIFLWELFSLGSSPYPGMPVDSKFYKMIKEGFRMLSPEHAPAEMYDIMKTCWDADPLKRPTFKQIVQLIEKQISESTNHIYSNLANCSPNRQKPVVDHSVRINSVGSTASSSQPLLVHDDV
How it was run: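 Autophosphorylation of mutant cKIT at Y307 was quantified by a Luminex bead sandwich assay (total-cKIT capture, phosphospecific detection) after 45 min compound exposure in GIST430/654 cells, cultured in medium containing 100 nM imatinib. Signals were normalised to solvent (0.3% DMSO) controls and dose-response curves fitted for IC50.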

c-Kit(V654A) = c-Kit(V654A) (Homo sapiens, UniProt P10721, V654A); test: c-Kit(V654A) assay; assay type: biochemical
How it was run: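 Radiometric filter-binding read-out: after 3% phosphoric acid stop, peptide-incorporated 33P on filtermat scintillation-counted. Enzyme: human c-Kit V654A, residues 544–end, N-terminal GST fusion.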

[2] = Table 1, cKIT autophosphorylation, compounds 45 min
[3] = Table 2, corresponding triazole derivatives

IC50 [1, 2]	IC50 (c-Kit(V654A); Table 1, 200 μM ATP)	IC50 [1, 3]	IC50 (c-Kit(V654A); [3])	SMILES
4400 nM	35 nM	–	–	CCOc1ccc(-c2cc(-c3n[nH]c4cc(OCCOC)c(F)cc34)on2)cn1 [A38, 3-[3-(6-ethoxypyridin-3-yl)-1,2-oxazol-5-yl]-5-fluoro-6-(2-methoxyethoxy)-1H-indazole]
160 nM	0.76 nM	–	–	COCCOc1cc2[nH]nc(-c3cc(-c4ccc(C(=O)N5CC[S+]([O-])CC5)cc4)no3)c2cc1F [A78, 4-(4-{5-[5-fluoro-6-(2-methoxyethoxy)-1H-indazol-3-yl]-1,2-oxazol-3-yl}benzoyl)-1lambda4-thiomorpholin-1-one]
–	–	700 nM	20 nM	COCCOc1cc2[nH]nc(-c3cn(-c4ccc(C(=O)N5CC(N6CCOCC6)C5)c(F)c4)nn3)c2cc1F [reference compound]
57 nM	0.88 nM	–	–	COCCOc1cc2[nH]nc(-c3cc(-c4ccc(C(=O)N5CCC[C@H]5CO)cc4)no3)c2cc1F [A51, [(2S)-1-(4-{5-[5-fluoro-6-(2-methoxyethoxy)-1H-indazol-3-yl]-1,2-oxazol-3-yl}benzoyl)pyrrolidin-2-yl]methanol]
–	–	910 nM	8.5 nM	COCCOc1cc2[nH]nc(-c3cc(-c4ccc(C(=O)N5CCC[C@H]5CO)cc4)no3)c2cc1F [drawing 57, reference compound]
300 nM	11 nM	–	–	COCCOc1cc2[nH]nc(-c3cc(-c4ccc(C)nc4)no3)c2cc1Cl [A13, 5-chloro-6-(2-methoxyethoxy)-3-[3-(6-methylpyridin-3-yl)-1,2-oxazol-5-yl]-1H-indazole]
420 nM	9.8 nM	–	–	COCCOc1cc2[nH]nc(-c3cc(-c4ccc(C(=O)N5CC(N6CCOCC6)C5)cn4)no3)c2cc1F [A82, 5-fluoro-6-(2-methoxyethoxy)-3-(3-{5-[3-(morpholin-4-yl)azetidine-1-carbonyl]pyridin-2-yl}-1,2-oxazol-5-yl)-1H-indazole]
250 nM	4.8 nM	–	–	COCCOc1ccc2c(-c3cc(-c4ccc(C(=O)N5CCC[C@@H]5C(C)(C)O)cc4)no3)n[nH]c2c1 [A2, 2-[(2R)-1-(4-{5-[6-(2-methoxyethoxy)-1H-indazol-3-yl]-1,2-oxazol-3-yl}benzoyl)pyrrolidin-2-yl]propan-2-ol]
56 nM	0.73 nM	–	–	COCCOc1cc2[nH]nc(-c3cc(-c4ccc(C(=O)N5CCS(=O)(=O)CC5)cc4)no3)c2cc1F [A30, 4-(4-{5-[5-fluoro-6-(2-methoxyethoxy)-1H-indazol-3-yl]-1,2-oxazol-3-yl}benzoyl)-1lambda6-thiomorpholine-1,1-dione]
46 nM	0.69 nM	–	–	COCCOc1cc2[nH]nc(-c3cc(-c4ccc(C(=O)N5CC(c6ccccn6)C5)cc4)no3)c2cc1F [A149, 5-fluoro-6-(2-methoxyethoxy)-3-(3-{4-[3-(pyridin-2-yl)azetidine-1-carbonyl]phenyl}-1,2-oxazol-5-yl)-1H-indazole]
77 nM	2.4 nM	–	–	COCCOc1cc2[nH]nc(-c3cc(-c4ccc(N=S(C)(C)=O)cc4)no3)c2cc1F [A47, [(4-{5-[5-fluoro-6-(2-methoxyethoxy)-1H-indazol-3-yl]-1,2-oxazol-3-yl}phenyl)imino]dimethyl-lambda6-sulfanone]
–	–	240 nM	7.5 nM	COCCOc1cc2[nH]nc(-c3cn(-c4ccc(C(=O)N5CC[C@H]5C(C)(C)O)cc4)nn3)c2cc1F [reference compound]
39 nM	0.91 nM	–	–	COCCOc1cc2[nH]nc(-c3cc(-c4ccc(C(=O)N5CC[C@H](F)C5)cc4)no3)c2cc1F [A32, 5-fluoro-3-(3-{4-[(3S)-3-fluoropyrrolidine-1-carbonyl]phenyl}-1,2-oxazol-5-yl)-6-(2-methoxyethoxy)-1H-indazole]
100 nM	0.09 nM	–	–	[2H]C1([2H])NC([2H])([2H])C([2H])([2H])N(C(=O)c2ccc(-c3cc(-c4n[nH]c5cc(OCCOC)c(F)cc45)on3)cc2)C1([2H])[2H] [A232, 5-fluoro-6-(2-methoxyethoxy)-3-(3-{4-[(2,2,3,3,5,5,6,6-^2H8)piperazine-1-carbonyl]phenyl}-1,2-oxazol-5-yl)-1H-indazole hydrochloride]
